The record followed here is PMC12668310, “High‐Throughput Synthesis and Screening of a Cyanimide Library Identifies Selective Inhibitors of ISG15‐Specific Protease mUSP18” (Angewandte Chemie (International Ed. in English), 2025).

The target of the assay is T1, mUSP18 (Mus musculus, UniProt Q9WTV6).
T1 construct: (46-368); His-tag (N); made in house
T1 sequence (Q9WTV6 46-368): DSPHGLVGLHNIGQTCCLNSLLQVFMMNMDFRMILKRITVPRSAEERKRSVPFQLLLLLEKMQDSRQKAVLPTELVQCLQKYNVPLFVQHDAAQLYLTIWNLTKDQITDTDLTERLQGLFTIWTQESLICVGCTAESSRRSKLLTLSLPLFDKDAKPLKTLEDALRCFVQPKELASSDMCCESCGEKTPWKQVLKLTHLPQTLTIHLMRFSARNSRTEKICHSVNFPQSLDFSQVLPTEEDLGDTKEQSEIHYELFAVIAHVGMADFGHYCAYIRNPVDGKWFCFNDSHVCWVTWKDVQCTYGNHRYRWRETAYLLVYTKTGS
Briefly: High-throughput screening, ISG15ct-RhoMP, single dose 1.25 µM. The assay is classed as biochemical, murine. The settings on record: for inhibition at 1.25 µM: mUSP18 %inhibition.

Setting [1] is: carboxylic acid (CA) building block alone, read-out: %inh CA only.
[2] abbreviates: carboxylic acid (CA) with coupling reagents DIC/HOBT, read-out: %inh CA + DIC/HOBT.

Where two headings read alike, the source gives them in different places.

For `O=C(O)C1CCCN1C(=O)Cc1ccccc1` (centres unmarked) [CA228], the inhibition at 1.25 µM by setting is: under setting [1], 2.77%; under setting [2], 4.1%.

In the case of `O=C(O)CC1(n2cccc2)CCCCC1` [CA229], the inhibition at 1.25 µM is, setting by setting: under setting [1], 3.52%; under setting [2], 5.66%.

`O=C(O)c1cc(S(=O)(=O)NCCCN2CCCC2=O)ccc1Cl` [CA230]: the inhibition at 1.25 µM under setting [1] amounted to 4.86% and the inhibition at 1.25 µM under setting [2] turned out to be 3.56%.

With `O=C(O)c1ccc(OCn2cc(Cl)cn2)cc1` [CA231], the inhibition at 1.25 µM reads like this: under setting [1], 5.6%; under setting [2], 6.49%.

With `O=C(O)Cc1cnn(-c2ccccc2)c1` [CA232], the inhibition at 1.25 µM under setting [1] is 1.32% and the inhibition at 1.25 µM under setting [2] stood at 8.28%.

Consider `CC(C)c1nc(Cn2cc(C(=O)O)ccc2=O)cs1` [CA233], for which the inhibition at 1.25 µM worked out at 1.25% under setting [1] and 15% under setting [2].

Take `CCS(=O)(=O)N1CCC(C(=O)O)(c2ccccc2)CC1` [CA234]: the inhibition at 1.25 µM is 19.5% under setting [1] and 0.71% under setting [2].

As for `O=C(O)c1ccc(CNS(=O)(=O)c2ccc(F)c(F)c2F)cc1` [CA235], the inhibition at 1.25 µM reads like this: under setting [1], 13.6%; under setting [2], 1.22%.

As for `O=C(O)c1csc(C2CC2)n1` [CA236], the inhibition at 1.25 µM is, setting by setting: under setting [1], 9.58%; under setting [2], 1.88%.

Take `CC1CCCC(N2CC(C(=O)O)CC2=O)C1C` (centres unmarked) [CA237]: the inhibition at 1.25 µM under setting [1] was 7.37% and the inhibition at 1.25 µM under setting [2] is -3.69%.

For the molecule `O=C(O)c1csc(-c2cnc[nH]2)n1` [CA238], the inhibition at 1.25 µM reads like this: under setting [1], 6.66%; under setting [2], -0.05%.

`Cc1cc(C(=O)O)c(C)n1C1CC1` [CA239]: the inhibition at 1.25 µM is 7.06% under setting [1] and 5.98% under setting [2].

Turning to `O=C(O)c1cnn(-c2cccc(Br)c2)c1` [CA240], the inhibition at 1.25 µM is, setting by setting: under setting [1], 7.83%; under setting [2], 6.83%.

For the molecule `CN(CC(=O)N1CCCC(C(=O)O)C1)c1ccc(Cl)cn1` (centres unmarked) [CA241], the inhibition at 1.25 µM reads like this: under setting [1], 5.13%; under setting [2], 1.85%.

`O=C(O)C1CCN(C(=O)c2ccccn2)CC1` [CA242]: the inhibition at 1.25 µM runs as follows: under setting [1], 6.36%; under setting [2], 2.43%.

For `O=C(O)c1ccc(Cn2cncn2)cc1` [CA243], the inhibition at 1.25 µM runs as follows: under setting [1], 6.44%; under setting [2], 2.23%.

With `O=C(O)c1cc(Cl)nc(N2CCCC2)c1` [CA244], the inhibition at 1.25 µM under setting [1] worked out at 9.03% and the inhibition at 1.25 µM under setting [2] was 3.68%.

In the case of `Cc1nc(-c2c[nH]c(C(=O)O)c2)cs1` [CA245], the inhibition at 1.25 µM runs as follows: under setting [1], 19.9%; under setting [2], 52.7%. Moreover, under “screened with and without DIC/HOBt”, the “inhibition of mUSP18 by individual CA's and coupling reagents” value was “could inhibit mUSP18”.

Turning to `O=C(O)Cc1ccn(-c2ccccc2)n1` [CA246], the inhibition at 1.25 µM runs as follows: under setting [1], 4.69%; under setting [2], 5.35%.

Regarding `O=C(O)C1CC(=O)N(C2CCCCCC2)C1` (centres unmarked) [CA247], the inhibition at 1.25 µM is 2.25% under setting [1] and 4.63% under setting [2].

With `O=C(O)c1cc(C2CCCCC2)[nH]n1` [CA248], the inhibition at 1.25 µM came to 1.65% under setting [1] and 7.2% under setting [2].

With `Cc1ccc(-c2cc(C(=O)O)n[nH]2)s1` [CA249], the inhibition at 1.25 µM under setting [1] came out at 4.85% and the inhibition at 1.25 µM under setting [2] amounted to 6.81%.

Turning to `O=C(O)c1ccc(-c2ccccc2)o1` [CA250], the inhibition at 1.25 µM reads like this: under setting [1], 3.02%; under setting [2], 5.27%.

As for `O=C(O)c1cccnc1N1CCCCC1` [CA251], the inhibition at 1.25 µM runs as follows: under setting [1], -0.46%; under setting [2], 6%.

As to `O=C(O)C1=NNC(=O)C1c1ccccc1` (centres unmarked) [CA252], the inhibition at 1.25 µM under setting [1] is 3.55% and the inhibition at 1.25 µM under setting [2] turned out to be 10.3%.

Take `Cc1nn(-c2ccc(C(F)(F)F)cn2)c(C)c1CC(=O)O` [CA253]: the inhibition at 1.25 µM was 3.16% under setting [1] and 9.05% under setting [2].

As to `Cc1ccc(N2CCCC(C(=O)O)C2)nc1` (centres unmarked) [CA254], the inhibition at 1.25 µM by setting is: under setting [1], -2.11%; under setting [2], 7.64%.

For the molecule `O=C(O)c1ccc(-c2cnco2)cc1` [CA255], the inhibition at 1.25 µM under setting [1] came to 0.58% and the inhibition at 1.25 µM under setting [2] was 7.03%.

For `Cn1nc(C(=O)O)cc1-c1cccnc1` [CA256], the inhibition at 1.25 µM is, setting by setting: under setting [1], -0.67%; under setting [2], 11.7%.

Regarding `Cc1cc(COc2ccc(C(=O)O)cc2Br)no1` [CA257], the inhibition at 1.25 µM is, setting by setting: under setting [1], 1.45%; under setting [2], 15.8%.

In the case of `O=C(O)C1CN(S(=O)(=O)C2CC2)C1` [CA258], the inhibition at 1.25 µM reads like this: under setting [1], 20.5%; under setting [2], 2.25%.

`COc1ccc(C(=O)O)cc1S(=O)(=O)NCCc1ccccn1` [CA259]: the inhibition at 1.25 µM came out at 13.5% under setting [1] and 2.38% under setting [2].

On to `Cc1onc(-c2ccccn2)c1C(=O)O` [CA260], for which the inhibition at 1.25 µM is, setting by setting: under setting [1], 12.1%; under setting [2], 1.48%.

Regarding `O=C(O)C(=O)N1CCN(c2ccccc2)CC1` [CA261], the inhibition at 1.25 µM under setting [1] came to 10.4% and the inhibition at 1.25 µM under setting [2] came out at 2.36%.

For the molecule `O=C(O)C(F)(F)n1cc(-c2ccccc2)nn1` [CA262], the inhibition at 1.25 µM was found to be 8.22% under setting [1] and 3.17% under setting [2].

For `O=C(O)C1Cc2ccccc21` (centres unmarked) [CA263], the inhibition at 1.25 µM came to 9.79% under setting [1] and 2.89% under setting [2].

On to `O=C(O)c1ccnc(N2CCOCC2)n1` [CA264], for which the inhibition at 1.25 µM reads like this: under setting [1], 8.23%; under setting [2], 4.28%.

In the case of `O=C(O)C1COCCN1C(=O)OCc1ccccc1` (centres unmarked) [CA265], the inhibition at 1.25 µM came out at 7.65% under setting [1] and 3.99% under setting [2].

`O=C(O)c1cncc(N2CCCC2)n1` [CA266]: the inhibition at 1.25 µM is, setting by setting: under setting [1], 8.54%; under setting [2], 4.99%.

Take `CN(Cc1ccccc1)S(=O)(=O)c1ccc(C(=O)O)cc1` [CA267]: the inhibition at 1.25 µM runs as follows: under setting [1], 9.75%; under setting [2], 5.3%.

`Cn1nc(-c2cccnc2)cc1C(=O)O` [CA268]: the inhibition at 1.25 µM runs as follows: under setting [1], 8.72%; under setting [2], 3.94%.

Regarding `O=C(O)c1cnoc1-c1ccccc1C(F)(F)F` [CA269], the inhibition at 1.25 µM under setting [1] was determined as 6.72% and the inhibition at 1.25 µM under setting [2] came out at 5.54%.

Turning to `O=C(O)c1cn(CC2CCCO2)nn1` (centres unmarked) [CA270], the inhibition at 1.25 µM came to 7.51% under setting [1] and 8.31% under setting [2].

`Cn1cc(-c2cc[nH]n2)c(C(=O)O)n1` [CA271]: the inhibition at 1.25 µM is 1% under setting [1] and 7% under setting [2].

In the case of `Cc1ccc([1C@@H]2C[1C@H]2C(=O)O)s1` [CA272], the inhibition at 1.25 µM is 5.08% under setting [1] and 8.26% under setting [2].

As for `CN1CCN(C(=O)[1C@@H]2[1C@@H](C(=O)O)C2(C)C)CC1` [CA273], the inhibition at 1.25 µM by setting is: under setting [1], 5.18%; under setting [2], 5.09%.

On to `Cc1csc(N2CCC(C(=O)O)CC2)n1` [CA274], for which the inhibition at 1.25 µM by setting is: under setting [1], 5.76%; under setting [2], 5.39%.

As to `O=C(O)c1cc(Cn2cc(Cl)cn2)cs1` [CA275], the inhibition at 1.25 µM under setting [1] was found to be 8.26% and the inhibition at 1.25 µM under setting [2] is 6.3%.

As to `Cc1nc(COc2ccc(C(=O)O)cc2)no1` [CA276], the inhibition at 1.25 µM under setting [1] amounted to 4.94% and the inhibition at 1.25 µM under setting [2] came out at 6.3%.

Regarding `CN(Cc1ccnn1C)C(=O)C1CCCCC1C(=O)O` (centres unmarked) [CA277], the inhibition at 1.25 µM reads like this: under setting [1], 5.25%; under setting [2], 7.6%.

For the molecule `COc1ccc(C(=O)O)cc1S(=O)(=O)NCc1ccccn1` [CA278], the inhibition at 1.25 µM runs as follows: under setting [1], 3.79%; under setting [2], 6.92%.

Regarding `O=C(O)c1ccc(CN2CCCCCC2)s1` [CA279], the inhibition at 1.25 µM under setting [1] came to 4.45% and the inhibition at 1.25 µM under setting [2] came out at 8.32%.

For the molecule `Cc1nc(-c2cc(C)n(CCC(=O)O)c2C)cs1` [CA280], the inhibition at 1.25 µM under setting [1] stood at 11.4% and the inhibition at 1.25 µM under setting [2] worked out at 14.1%.

Turning to `O=C(O)c1ccc(Cl)c(N2CCCS2(=O)=O)c1` [CA281], the inhibition at 1.25 µM came out at 4.15% under setting [1] and 14.1% under setting [2].

For `Cc1noc(C)c1S(=O)(=O)N1CCC(C(=O)O)CC1` [CA282], the inhibition at 1.25 µM runs as follows: under setting [1], 10.4%; under setting [2], -1.35%.

In the case of `NS(=O)(=O)c1ccc(CCNS(=O)(=O)c2cccc(C(=O)O)c2)cc1` [CA283], the inhibition at 1.25 µM under setting [1] is 7.79% and the inhibition at 1.25 µM under setting [2] was -9.16%.

As to `O=C(O)c1ccc(-c2cccs2)[nH]c1=O` [CA284], the inhibition at 1.25 µM by setting is: under setting [1], 9.12%; under setting [2], -3.37%.

For `O=C(O)c1cc(N2CCOCC2)ccn1` [CA285], the inhibition at 1.25 µM is, setting by setting: under setting [1], 2.02%; under setting [2], -5.92%.

As to `O=C(O)Cc1csc(-c2nnc[nH]2)n1` [CA286], the inhibition at 1.25 µM runs as follows: under setting [1], 1.07%; under setting [2], -3.16%.

In the case of `O=C(O)c1ccc(-n2cccn2)cc1` [CA287], the inhibition at 1.25 µM under setting [1] is 1.15% and the inhibition at 1.25 µM under setting [2] is -3.85%.

In the case of `Cc1ccccc1COc1cccc(CC(=O)O)c1` [CA288], the inhibition at 1.25 µM runs as follows: under setting [1], 3.53%; under setting [2], -1.94%.

On to `O=C(O)c1ccc(S(=O)(=O)Nc2cccc(Cl)c2F)o1` [CA289], for which the inhibition at 1.25 µM is 1.57% under setting [1] and -1.23% under setting [2].

With `O=C(O)C1CCCN1C(=O)c1ccncc1` (centres unmarked) [CA290], the inhibition at 1.25 µM was -0.53% under setting [1] and -3.12% under setting [2].

In the case of `Cc1ccc(S(=O)(=O)N[C@@H](Cc2ccccc2)C(=O)O)cc1` [CA291], the inhibition at 1.25 µM reads like this: under setting [1], 3.32%; under setting [2], -0.72%.

As to `O=C(O)c1csc(-c2ccc(Br)s2)n1` [CA292], the inhibition at 1.25 µM by setting is: under setting [1], 6.43%; under setting [2], 1.42%.
